Where two headings read alike, the source gives them in different places.
Experiments:
[1] = system: Aβ40 in conditioned medium of cells stably expressing Amyloid Precursor Protein (APP); assay: In vitro BACE cell-based assay (Aβ40 in conditioned medium, sandwich ELISA); conditions: read-out: HEK cell assay
In short: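 Quantification relied on pAb40/6E10 sandwich ELISA with Europium fluorescence counts, and IC50 was fitted versus concentration.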

[2] = target: Beta Secretase enzyme (BACE) (Homo sapiens, UniProt P56817); assay: In vitro enzymatic BACE FRET (fluorescence resonance energy transfer) assay; type: biochemical; conditions: average IC50, enzyme assay; read-out: BACE 1 FRET assay
In short: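 Fluorescence read after Tris quench to neutral pH. Reaction: 50 nM fluorophore/quencher peptide substrate, 1 h, in 0.05 M acetate pH 4.2, 10% DMSO final, 100 uM genapol.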

[3] = Homo sapiens, HEK293, average IC50, HEK cells

Beta Secretase enzyme (BACE), sequence (P56817 46-501, species assumed): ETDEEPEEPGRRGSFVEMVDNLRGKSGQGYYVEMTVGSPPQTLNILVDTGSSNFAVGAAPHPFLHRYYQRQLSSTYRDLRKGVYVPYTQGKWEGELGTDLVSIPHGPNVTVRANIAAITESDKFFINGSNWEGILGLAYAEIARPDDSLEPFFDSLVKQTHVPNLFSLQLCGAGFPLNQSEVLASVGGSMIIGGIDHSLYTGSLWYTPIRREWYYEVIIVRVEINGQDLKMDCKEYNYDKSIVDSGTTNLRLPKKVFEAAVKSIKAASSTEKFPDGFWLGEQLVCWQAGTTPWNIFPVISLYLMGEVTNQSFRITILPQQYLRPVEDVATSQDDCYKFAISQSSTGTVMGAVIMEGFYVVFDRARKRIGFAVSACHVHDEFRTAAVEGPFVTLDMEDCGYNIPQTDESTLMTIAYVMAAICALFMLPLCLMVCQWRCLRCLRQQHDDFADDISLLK

Row | IC50 [1, 3] | IC50 [2] | IC50 ([1]; average IC50, HEK cells) | Structure (SMILES)
1 | 5 nM | 0.6 nM |  | CC1(C#Cc2cnc3c(c2)[C@]2(COC(N)=N2)c2cc(-c4cnccc4F)c(F)cc2O3)COC1 [Example 621, (5S)-8-fluoro-7-(4-fluoro-3-pyridinyl)-3-((3-methyl-3-oxetanyl)ethynyl)spiro[chromeno[2,3-b]pyridine-5,4′-[1,3]oxazol]-2′-amine]
2 | 452 nM | 105 nM |  | CC1(C#Cc2cnc3c(c2)[C@@]2(COC(N)=N2)c2cc(-c4cnccc4F)c(F)cc2O3)COC1 [Example 622, (5R)-8-fluoro-7-(4-fluoro-3-pyridinyl)-3-((3-methyl-3-oxetanyl)ethynyl)spiro[chromeno[2,3-b]pyridine-5,4′-[1,3]oxazol]-2′-amine]
3 | 9 nM | 0.9 nM |  | CC1(C#Cc2cnc3c(c2)[C@]2(COC(N)=N2)c2cc(-c4cncc(F)c4)c(F)cc2O3)COC1 [Example 623, (5S)-8-fluoro-7-(5-fluoro-3-pyridinyl)-3-((3-methyl-3-oxetanyl)ethynyl)spiro[chromeno[2,3-b]pyridine-5,4-[1,3]oxazol]-2′-amine]
4 | 762 nM | 986 nM |  | CC1(C#Cc2cnc3c(c2)[C@@]2(COC(N)=N2)c2cc(-c4cncc(F)c4)c(F)cc2O3)COC1 [Example 624, (5R)-8-fluoro-7-(5-fluoro-3-pyridinyl)-3-((3-methyl-3-oxetanyl)ethynyl)spiro[chromeno[2,3-b]pyridine-5,4′-[1,3]oxazol]-2′-amine]
5 | 2210 nM | 901 nM |  | CC1(C#Cc2cnc3c(c2)[C@@]2(COC(N)=N2)c2cc(-c4cncc(Cl)c4)c(F)cc2O3)COC1 [Example 625, (5R)-7-(5-chloro-3-pyridinyl)-8-fluoro-3-((3-methyl-3-oxetanyl)ethynyl)spiro[chromeno[2,3-b]pyridine-5,4′-[1,3]oxazol]-2′-amine]
6 | 6 nM | 0.8 nM |  | CC1(C#Cc2cnc3c(c2)[C@]2(COC(N)=N2)c2cc(-c4cncc(Cl)c4)c(F)cc2O3)COC1 [Example 626, (5S)-7-(5-chloro-3-pyridinyl)-8-fluoro-3-((3-methyl-3-oxetanyl)ethynyl)spiro[chromeno[2,3-b]pyridine-5,4′-[1,3]oxazol]-2′-amine]
7 | 1590 nM | 626 nM |  | N#Cc1cnc2c(c1)C1(CSC(N)=N1)c1cc(-c3cccnc3F)ccc1O2 (stereo not shown) [Example 627, 2′-amino-7-(2-fluoro-3-pyridinyl)spiro[chromeno[2,3-b]pyridine-5,4′-[1,3]thiazole]-3-carbonitrile]
8 | 7 nM | 0.6 nM |  | CC(C)(C)C#Cc1cnc2c(c1)[C@]1(CSC(N)=N1)c1cc(-c3cncnc3)ccc1O2 [Example 629, (5S)-3-(3,3-dimethyl-1-butyn-1-yl)-7-(5-pyrimidinyl)spiro[chromeno[2,3-b]pyridine-5,4′-[1,3]thiazol]-2′-amine]
9 | 11 nM | 0.3 nM |  | NC1=N[C@@]2(CO1)c1cc(-c3cncc(F)c3)ccc1Oc1c2cc(-c2cccnc2)nc1F [Example 630, (5S)-1-fluoro-7-(5-fluoro-3-pyridinyl)-3-(3-pyridinyl)spiro[chromeno[2,3-c]pyridine-5,4′-[1,3]oxazol]-2′-amine]
10 | 184 nM | 21.4 nM |  | Cc1ccnn1-c1cc(F)c2c(c1)[C@]1(COC(N)=N1)c1cc(O)ccc1O2 [Example 631, (4S)-2-amino-5′-fluoro-7′-(5-methyl-1H-pyrazol-1-yl)spiro[1,3-oxazole-4,9′-xanthen]-2′-ol]
11 | 34 nM | 3.9 nM |  | Cc1ccn(-c2cc(F)c3c(c2)[C@]2(COC(N)=N2)c2cc(-c4cccnc4)ccc2O3)n1 [Example 633, (4S)-4′-fluoro-2′-(3-methyl-1H-pyrazol-1-yl)-7′-(3-pyridinyl)spiro[1,3-oxazole-4,9′-xanthen]-2-amine]
12 | 154 nM | 30.3 nM |  | Cc1ccnn1-c1cc(F)c2c(c1)[C@]1(COC(N)=N1)c1cc(-c3cccnc3)ccc1O2 [Example 634, (4S)-4′-fluoro-2′-(5-methyl-1H-pyrazol-1-yl)-7′-(3-pyridinyl)spiro[1,3-oxazole-4,9′-xanthen]-2-amine]
13 | 23 nM | 2.4 nM |  | Cc1ccn(-c2cc(F)c3c(c2)[C@]2(COC(N)=N2)c2cc(-c4cncnc4)ccc2O3)n1 [Example 635, (4S)-4′-fluoro-2′-(3-methyl-1H-pyrazol-1-yl)-7′-(5-pyrimidinyl)spiro[1,3-oxazole-4,9′-xanthen]-2-amine]
14 | 273 nM | 28.8 nM |  | Cc1ccnn1-c1cc(F)c2c(c1)[C@]1(COC(N)=N1)c1cc(-c3cncnc3)ccc1O2 [Example 636, (4S)-4′-fluoro-2′-(5-methyl-1H-pyrazol-1-yl)-7′-(5-pyrimidinyl)spiro[1,3-oxazole-4,9′-xanthen]-2-amine]
15 | 62 nM | 2.1 nM |  | CC(C)(C)C#Cc1cc2c(cn1)Oc1ccc(-c3cccnc3F)cc1C21CSC(N)=N1 (stereo not shown) [Example 637, 3-(3,3-dimethyl-1-butyn-1-yl)-7-(2-fluoro-3-pyridinyl)spiro[chromeno[2,3-c]pyridine-5,4′-[1,3]thiazol]-2′-amine]

More lines, now with the values behind:

Row | Structure (SMILES) | IC50 [1, 3] | IC50 [2] | IC50 ([1]; average IC50, HEK cells)
16 | COc1nccc(-c2cc(F)c3c(c2)[C@]2(COC(N)=N2)c2cc(-c4cccnc4F)ccc2O3)n1 [Example 607, (4S)-4′-fluoro-7′-(2-fluoro-3-pyridinyl)-2′-(2-methoxy-4-pyrimidinyl)spiro[1,3-oxazole-4,9′-xanthen]-2-amine] | 70 nM | 5.1 nM | 
17 | COc1cc(F)c2c(c1)[C@]1(CSC(N)=N1)c1cc(-c3cccnc3F)ccc1O2 [Example 608, (4S)-4′-fluoro-7′-(2-fluoro-3-pyridinyl)-2′-methoxyspiro[1,3-thiazole-4,9′-xanthen]-2-amine] | 162 nM | 3.6 nM | 
18 | CC(C)(C)COc1cc2c(cn1)Oc1ccc(-c3cccnc3F)cc1[C@@]21COC(N)=N1 [Example 609, (5S)-3-(2,2-dimethylpropoxy)-7-(2-fluoro-3-pyridinyl)spiro[chromeno[2,3-c]pyridine-5,4′-[1,3]oxazol]-2′-amine] | 15 nM | 0.4 nM | 
19 | CC(C)(C)COc1cc2c(cn1)Oc1ccc(-c3cccnc3F)cc1[C@]21COC(N)=N1 [Example 610, (5R)-3-(2,2-dimethylpropoxy)-7-(2-fluoro-3-pyridinyl)spiro[chromeno[2,3-c]pyridine-5,4′-[1,3]oxazol]-2′-amine] | 1130 nM | 116 nM | 
20 | NC1=NC2(CS1)c1cc(-c3cccnc3F)ccc1Oc1c2cc(Cl)nc1F (stereo not shown) [Example 611, 3-chloro-1-fluoro-7-(2-fluoro-3-pyridinyl)spiro[chromeno[2,3-c]pyridine-5,4′-[1,3]thiazol]-2′-amine] | 2950 nM | 6.1 nM | 
21 | COc1ccnc(F)c1-c1ccc2c(c1)[C@@]1(COC(N)=N1)c1cc(C3=CCOCC3)ncc1O2 [Example 612, (5S)-3-(3,6-dihydro-2H-pyran-4-yl)-7-(2-fluoro-4-methoxy-3-pyridinyl)spiro[chromeno[2,3-c]pyridine-5,4′-[1,3]oxazol]-2′-amine] | 3 nM | 0.6 nM | 
22 | NC1=N[C@]2(CS1)c1cc(-c3cccnc3F)ccc1Oc1cnc(C3=CCOCC3)cc12 [Example 613, (5R)-3-(3,6-dihydro-2H-pyran-4-yl)-7-(2-fluoro-3-pyridinyl)spiro[chromeno[2,3-c]pyridine-5,4′-[1,3]thiazol]-2′-amine] | 2560 nM | 227 nM | 
23 | NC1=N[C@@]2(CS1)c1cc(-c3cccnc3F)ccc1Oc1cnc(C3=CCOCC3)cc12 [Example 614, (5S)-3-(3,6-dihydro-2H-pyran-4-yl)-7-(2-fluoro-3-pyridinyl)spiro[chromeno[2,3-c]pyridine-5,4′-[1,3]thiazol]-2′-amine] |  | 0.3 nM | 5 nM
24 | NC1=N[C@@]2(CO1)c1cc(-c3cncc(F)c3)ccc1Oc1c2cc(C2=CCOCC2)nc1F [Example 615, (5S)-3-(3,6-dihydro-2H-pyran-4-yl)-1-fluoro-7-(5-fluoro-3-pyridinyl)spiro[chromeno[2,3-c]pyridine-5,4′-[1,3]oxazol]-2′-amine] | 2 nM | 0.3 nM | 
25 | NC1=N[C@@]2(CO1)c1cc(-c3c(F)ccnc3F)ccc1Oc1cnc(C3CCOCC3)cc12 [Example 616, (5S)-7-(2,4-difluoro-3-pyridinyl)-3-(tetrahydro-2H-pyran-4-yl)spiro[chromeno[2,3-c]pyridine-5,4′-[1,3]oxazol]-2′-amine] | 176 nM | 17 nM | 
26 | NC1=N[C@@]2(CO1)c1cc(-c3c(F)ccnc3F)ccc1Oc1cnc([C@H]3CCCCO3)cc12 [Example 617, (5S)-7-(2,4-difluoro-3-pyridinyl)-3-((2R)-tetrahydro-2H-pyran-2-yl)spiro[chromeno[2,3-c]pyridine-5,4′-[1,3]oxazol]-2′-amine] |  | 5.2 nM | 42 nM
27 | NC1=N[C@]2(CS1)c1cc(-c3cncc(F)c3)ccc1Oc1cnc(C3=CCOCC3)cc12 [Example 618, (5R)-3-(3,6-dihydro-2H-pyran-4-yl)-7-(5-fluoro-3-pyridinyl)spiro[chromeno[2,3-c]pyridine-5,4′-[1,3]thiazol]-2′-amine] | 6670 nM | 369 nM | 
28 | NC1=N[C@@]2(CS1)c1cc(-c3cncc(F)c3)ccc1Oc1cnc(C3=CCOCC3)cc12 [Example 619, (5S)-3-(3,6-dihydro-2H-pyran-4-yl)-7-(5-fluoro-3-pyridinyl)spiro[chromeno[2,3-c]pyridine-5,4′-[1,3]thiazol]-2′-amine] |  | 0.4 nM | 8 nM
29 | Cc1ccn(-c2cc(F)c3c(c2)[C@]2(COC(N)=N2)c2cc(-c4cccnc4F)ccc2O3)n1 [Example 620, (4S)-4′-fluoro-7′-(2-fluoro-3-pyridinyl)-2′-(3-methyl-1H-pyrazol-1-yl)spiro[1,3-oxazole-4,9′-xanthen]-2-amine] | 68 nM | 2.8 nM | 

From patent publication US8883782B2, “Spiro-tetracyclic ring compounds as beta-secretase modulators and methods of use” (Amgen Inc., priority 2010, dated 2014)
